Numbers after ± are expanded uncertainties.
Experiment: refractive index (Na D-line) (dimensionless)
Details: 101.33 kPa, Liquid, Standard Abbe refractometry

SMILES | refractive index (293.1 K) | refractive index (298.1 K)
CCCCc1ccccc1 [butylbenzene] | 1.4895 ± 0.0008 | –
CCCc1ccccc1 [propylbenzene] | 1.4915 ± 0.0008 | –
CCCCCCCCCCCC [dodecane] | 1.422 ± 0.0008 | –
CCCC[n+]1ccc(C)cc1.F[B-](F)(F)F [1-butyl-4-methylpyridinium tetrafluoroborate] | – | 1.4509 ± 0.0008
